The results in this text go back to patent publication US20090275583A1, “ANTIVIRAL COMPOUNDS AND USE THEREOF” (Myriad Genetics, Incorporated, priority 2006, published 2009).

The term IC50 denotes the concentration that gives 50% inhibition. As a reminder, the EC50 is the concentration that produces a half-maximal response.

The test system of one test is HIV-1NL4-3. Description: P4-MAGI assay. It is filed as cell-based. The settings on record: Human immunodeficiency virus 1, 24 h, P4 cells, 24 hour incubation, β-galactosidase expression; read-out: P4-MAGI IC50. In short, it runs like this:
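HeLa-derived CD4+ P4 cells carrying an LTR-driven lacZ were infected with HIV-1NL4-3 at MOI 1 with DEAE-Dextran, then compound added in increasing concentrations right after virus; infection reported as Tat-induced β-galactosidase. TC50 measured by WST-1 in mock-infected cells.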

Test [1] has as its system HIV-1 laboratory strain, NL4-3. Description: MT-4 cytoprotection assay. The settings on record: Human immunodeficiency virus 1, NL43, MT4, 96 h; MT-4 cells, four days incubation, WST-1 readout; read-out: MT4 EC50. In kind it is cell-based. In short, it runs like this:
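MT-4 cells mock- or batch-infected with NL4-3 (MOI 0.0005) for 2 h, washed, then cultured 4 days with increasing compound concentrations. Viability read by WST-1 tetrazolium reduction: cytoprotection in infected cells, toxicity in mock-infected cells.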

Consider `C=C(C)[C@@H]1CC[C@]2(C(=O)NCCc3cccc(C(=O)NCCc4c[nH]c5ccccc45)c3)CC[C@]3(C)C(CCC4[C@@]5(C)CC[C@H](O)C(C)(C)C5CC[C@]43C)C12` (stereo partly drawn) [Example 151], for which the IC50 with HIV-1NL4-3 worked out at 85 nM. Also, the concentration giving a half-maximal response (EC50) in test [1] is 325 nM.

Regarding `C=C(C)[C@@H]1CC[C@]2(C(=O)NCCc3cccc(C(=O)NCc4nc(C(=O)OC)co4)c3)CC[C@]3(C)C(CCC4[C@@]5(C)CC[C@H](O)C(C)(C)C5CC[C@]43C)C12` (stereo partly drawn) [Example 152], in the test on HIV-1NL4-3, the IC50 came out at 36 nM. Further, the concentration giving a half-maximal response (EC50) in test [1] turned out to be 14 nM.

`C=C(C)[C@@H]1CC[C@]2(C(=O)NCCc3cccc(C(=O)NCc4nc(C(=O)O)co4)c3)CC[C@]3(C)C(CCC4[C@@]5(C)CC[C@H](O)C(C)(C)C5CC[C@]43C)C12` (stereo partly drawn) [Example 153]: the 50% inhibitory concentration (IC50) in the test with HIV-1NL4-3 was 44.7 nM. Besides, in test [1], the 50% effective concentration (EC50) amounted to 14 nM.

Consider `C=C(C)[C@@H]1CC[C@]2(C(=O)NCCc3cccc(C(=O)NCc4cccc(C(=O)OC)n4)c3)CC[C@]3(C)C(CCC4[C@@]5(C)CC[C@H](O)C(C)(C)C5CC[C@]43C)C12` (stereo partly drawn) [Example 154], for which the concentration for half-maximal inhibition (IC50) with HIV-1NL4-3 came to 34 nM. For the same molecule, the 50% effective concentration (EC50) in test [1] was 8 nM.

For `C=C(C)[C@@H]1CC[C@]2(C(=O)NCCc3cccc(C(=O)NCc4ccc(C(=O)OC)o4)c3)CC[C@]3(C)C(CCC4[C@@]5(C)CC[C@H](O)C(C)(C)C5CC[C@]43C)C12` (stereo partly drawn) [Example 155], the concentration for half-maximal inhibition (IC50) in the test with HIV-1NL4-3 came to 25.6 nM. Also, the EC50 in test [1] turned out to be 17 nM.

Take `C=C(C)[C@@H]1CC[C@]2(C(=O)NCCc3cccc(C(=O)NCc4ccc(C(=O)O)o4)c3)CC[C@]3(C)C(CCC4[C@@]5(C)CC[C@H](O)C(C)(C)C5CC[C@]43C)C12` (stereo partly drawn) [Example 156]: the IC50 with HIV-1NL4-3 is 51 nM. Further, the EC50 in test [1] came out at 8 nM.

As to `C=C(C)[C@@H]1CC[C@]2(C(=O)NCCc3cccc(C(=O)NCc4cnc(C)cn4)c3)CC[C@]3(C)C(CCC4[C@@]5(C)CC[C@H](O)C(C)(C)C5CC[C@]43C)C12` (stereo partly drawn) [Example 157], in the test on HIV-1NL4-3, the IC50 came to 32 nM. In test [1], the EC50 amounted to 111 nM.

In the case of `C=C(C)[C@@H]1CC[C@]2(C(=O)NCCc3cccc(C(=O)N[C@@H](C)c4ccccn4)c3)CC[C@]3(C)C(CCC4[C@@]5(C)CC[C@H](O)C(C)(C)C5CC[C@]43C)C12` (stereo partly drawn) [Example 158], the IC50 with HIV-1NL4-3 was 249 nM. Further, in test [1], the EC50 was more than 10000 nM.

`C=C(C)[C@@H]1CC[C@]2(C(=O)NCCc3cccc(C(=O)NC(C)(C)c4ccccn4)c3)CC[C@]3(C)C(CCC4[C@@]5(C)CC[C@H](O)C(C)(C)C5CC[C@]43C)C12` (stereo partly drawn) [Example 159]: in the test with HIV-1NL4-3, the half-inhibitory concentration (IC50) worked out at 250 nM. Moreover, in test [1], the EC50 is more than 10000 nM.

`C=C(C)[C@@H]1CC[C@]2(C(=O)NCCc3cccc(C(=O)NCc4ccc(C(=O)N[C@@H](C(=O)O)[C@H](C)O)cc4)c3)CC[C@]3(C)C(CCC4[C@@]5(C)CC[C@H](O)C(C)(C)C5CC[C@]43C)C12` (stereo partly drawn) [Example 160]: the half-inhibitory concentration (IC50) with HIV-1NL4-3 was 15 nM. Besides, in test [1], the EC50 came to 39 nM.

As to `C=C(C)[C@@H]1CC[C@]2(C(=O)NCCc3cccc(C(=O)NCc4ccc(C(=O)N[C@@H](C(=O)OC)[C@H](C)O)cc4)c3)CC[C@]3(C)C(CCC4[C@@]5(C)CC[C@H](O)C(C)(C)C5CC[C@]43C)C12` (stereo partly drawn) [Example 161], the IC50 in the test on HIV-1NL4-3 came out at 15 nM. Besides, in test [1], the EC50 turned out to be 15 nM.

Take `C=C(C)[C@@H]1CC[C@]2(C(=O)NCCc3cccc(C(=O)NCc4ccc(C(=O)N[C@H](Cc5ccc(O)cc5)C(=O)O)cc4)c3)CC[C@]3(C)C(CCC4[C@@]5(C)CC[C@H](O)C(C)(C)C5CC[C@]43C)C12` (stereo partly drawn) [Example 164]: the IC50 with HIV-1NL4-3 came to 7 nM. Further, the 50% effective concentration (EC50) in test [1] amounted to 7 nM.

As to `C=C(C)[C@@H]1CC[C@]2(C(=O)NCCc3cccc(C(=O)NCc4ccc(C(=O)N[C@H](Cc5ccc(O)cc5)C(=O)OC)cc4)c3)CC[C@]3(C)C(CCC4[C@@]5(C)CC[C@H](O)C(C)(C)C5CC[C@]43C)C12` (stereo partly drawn) [Example 165], in the test with HIV-1NL4-3, the IC50 turned out to be 13 nM. Besides, in test [1], the EC50 is 20 nM.

`C=C(C)[C@@H]1CC[C@]2(C(=O)NCCc3cccc(C(=O)NCc4ccc(C(=O)N[C@H](Cc5cc6ccccc6[nH]5)C(=O)O)cc4)c3)CC[C@]3(C)C(CCC4[C@@]5(C)CC[C@H](O)C(C)(C)C5CC[C@]43C)C12` (stereo partly drawn) [Example 166]: the IC50 in the test with HIV-1NL4-3 was found to be 22 nM. Besides, in test [1], the concentration giving a half-maximal response (EC50) came to 13 nM.

Consider `C=C(C)[C@@H]1CC[C@]2(C(=O)NCCc3cccc(C(=O)NCc4ccc(C(=O)N[C@H](Cc5cc6ccccc6[nH]5)C(=O)OC)cc4)c3)CC[C@]3(C)C(CCC4[C@@]5(C)CC[C@H](O)C(C)(C)C5CC[C@]43C)C12` (stereo partly drawn) [Example 167], for which, in the test on HIV-1NL4-3, the 50% inhibitory concentration (IC50) is 22 nM. Besides, the concentration for a half-maximal effect (EC50) in test [1] stood at 19 nM.

With `C=C(C)[C@@H]1CC[C@]2(C(=O)NCCc3cccc(C(=O)NCc4ccc(C(=O)N[C@@H](C(=O)O)C(C)C)cc4)c3)CC[C@]3(C)C(CCC4[C@@]5(C)CC[C@H](O)C(C)(C)C5CC[C@]43C)C12` (stereo partly drawn) [Example 168], the IC50 with HIV-1NL4-3 is 14 nM. In test [1], the EC50 was 6 nM.

As to `C=C(C)[C@@H]1CC[C@]2(C(=O)NCCc3cccc(C(=O)NCc4ccc(C(=O)N[C@@H](C(=O)OC)C(C)C)cc4)c3)CC[C@]3(C)C(CCC4[C@@]5(C)CC[C@H](O)C(C)(C)C5CC[C@]43C)C12` (stereo partly drawn) [Example 169], in the test with HIV-1NL4-3, the half-maximal inhibitory concentration (IC50) came to 20 nM. Also, the EC50 in test [1] was 9 nM.

With `C=C(C)[C@@H]1CC[C@]2(C(=O)NCCc3cccc(C(=O)NCc4ccc(C(=O)N[C@H](Cc5c[nH]cn5)C(=O)OC)cc4)c3)CC[C@]3(C)C(CCC4[C@@]5(C)CC[C@H](O)C(C)(C)C5CC[C@]43C)C12` (stereo partly drawn) [Example 170], in the test with HIV-1NL4-3, the concentration for half-maximal inhibition (IC50) was found to be 10 nM. Besides, in test [1], the EC50 was found to be 5 nM.

For the molecule `C=C(C)[C@@H]1CC[C@]2(C(=O)NCCc3cccc(C(=O)NCc4ccc(C(=O)NCCC5CCCN5C)cc4)c3)CC[C@]3(C)C(CCC4[C@@]5(C)CC[C@H](O)C(C)(C)C5CC[C@]43C)C12` (stereo partly drawn) [Example 171], the IC50 in the test on HIV-1NL4-3 was determined as 50 nM. Besides, the EC50 in test [1] is 11 nM.

In the case of `C=C(C)[C@@H]1CC[C@]2(C(=O)NCCc3cccc(C(=O)NCc4ccc(C(=O)NCCN5CCCCC5)cc4)c3)CC[C@]3(C)C(CCC4[C@@]5(C)CC[C@H](O)C(C)(C)C5CC[C@]43C)C12` (stereo partly drawn) [Example 172], the IC50 with HIV-1NL4-3 came out at 93 nM. Further, the EC50 in test [1] turned out to be 14 nM.

With `C=C(C)[C@@H]1CC[C@]2(C(=O)NCCc3cccc(C(=O)NCc4ccc(C(=O)NCCN5CCC(O)CC5)cc4)c3)CC[C@]3(C)C(CCC4[C@@]5(C)CC[C@H](O)C(C)(C)C5CC[C@]43C)C12` (stereo partly drawn) [Example 173], the IC50 in the test with HIV-1NL4-3 came to 28 nM. In addition, the EC50 in test [1] was 2 nM.

Take `C=C(C)[C@@H]1CC[C@]2(C(=O)NCCc3cccc(C(=O)NCc4ccc(C(=O)NCCN5CCOCC5)cn4)c3)CC[C@]3(C)C(CCC4[C@@]5(C)CC[C@H](O)C(C)(C)C5CC[C@]43C)C12` (stereo partly drawn) [Example 174]: the 50% inhibitory concentration (IC50) in the test with HIV-1NL4-3 came out at 6 nM. For the same molecule, the 50% effective concentration (EC50) in test [1] was 7 nM.

Turning to `C=C(C)[C@@H]1CC[C@]2(C(=O)NCCc3cccc(C(=O)NCc4ccc(C(=O)N[C@H](CO)C(=O)OC)cc4)c3)CC[C@]3(C)C(CCC4[C@@]5(C)CC[C@H](O)C(C)(C)C5CC[C@]43C)C12` (stereo partly drawn) [Example 175], the concentration for half-maximal inhibition (IC50) with HIV-1NL4-3 amounted to 13 nM. The concentration giving a half-maximal response (EC50) in test [1] turned out to be 4 nM.

Turning to `C=C(C)[C@@H]1CC[C@]2(C(=O)NCCc3cccc(C(=O)NCc4ccc(C(=O)N[C@@H](C(=O)O)[C@@H](C)N5CCOCC5)cc4)c3)CC[C@]3(C)C(CCC4[C@@]5(C)CC[C@H](O)C(C)(C)C5CC[C@]43C)C12` (stereo partly drawn) [Example 176], the half-inhibitory concentration (IC50) in the test with HIV-1NL4-3 worked out at 72 nM. Also, the EC50 in test [1] is 57 nM.
